From the supplement of paper PMC11061612

Columns and labels:
AZD4320 = compound: CN(CC[C@H](CSC1=CC=CC=C1)NC2=C(C=C(C=C2)S(=O)(=O)NC(=O)C3=CC=C(C=C3)N4CCC(CC4)[C@H](C5=CC=CC=C5C6=CC=C(C=C6)Cl)O)S(=O)(=O)C(F)(F)F)CCO [AZD4320]; conditions: max 1 µM
Method in brief: (§1)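 Plates with 1536 wells received cancer cell lines in 7.5 μl of DMEM/F12 or RPMI containing 10% FBS. After 24 hours at 37°C and 5% CO2, cells were dosed for 72 hours with final DMSO typically 0.2%, and viability was read by CellTiter-Glo 2.0 luminescence scaled between blank-well and DMSO-well means. The single-agent IC50 was taken from a logistic fit of the dose responses made with a non-linear mixed effects model, that logistic curve having two parameters.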

Doxorubicin = compound: COc1cccc2c1C(=O)c1c(O)c3c(c(O)c1C2=O)C[C@@](O)(C(=O)CO)C[C@@H]3O[C@H]1C[C@H](N)[C@H](O)[C@H](C)O1 [Doxorubicin]; conditions: max 1 µM
Method in brief: as §1

Gefitinib = compound: COc1cc2ncnc(Nc3ccc(F)c(Cl)c3)c2cc1OCCCN1CCOCC1 [Gefitinib]; conditions: max 10 µM
Method in brief: as §1

Venetoclax = compound: CC1(C)CCC(CN2CCN(c3ccc(C(=O)NS(=O)(=O)c4ccc(NCC5CCOCC5)c([N+](=O)[O-])c4)c(Oc4cnc5[nH]ccc5c4)c3)CC2)=C(c2ccc(Cl)cc2)C1 [Venetoclax]; conditions: max 1 µM
Method in brief: as §1

Dasatinib = compound: CC1=C(C(=CC=C1)Cl)NC(=O)C2=CN=C(S2)NC3=CC(=NC(=N3)C)N4CCN(CC4)CCO [Dasatinib]; conditions: max 2 µM
Method in brief: as §1

Palbociclib = compound: CC(=O)c1c(C)c2cnc(Nc3ccc(N4CCNCC4)cn3)nc2n(C2CCCC2)c1=O [Palbociclib]; conditions: max 10 µM
Method in brief: as §1

Olaparib = compound: O=C(c1cc(Cc2n[nH]c(=O)c3ccccc23)ccc1F)N1CCN(C(=O)C2CC2)CC1 [Olaparib]
Method in brief: as §1

Taselisib = compound: Cc1nc(-c2cn3c(n2)-c2ccc(-c4cnn(C(C)(C)C(N)=O)c4)cc2OCC3)n(C(C)C)n1 [Taselisib]; conditions: max 10 µM
Method in brief: as §1

AZD0156 = compound: CN(C)CCCOc1ccc(-c2ccc3ncc4c(c3c2)n(C2CCOCC2)c(=O)n4C)cn1 [AZD0156]; conditions: max 3 µM
Method in brief: as §1

AZD5991 = compound: Cc1c2c(nn1C)CSCc1cc(n(C)n1)CSc1cc(c3ccccc3c1)OCCCc1c(C(=O)O)n(C)c3c-2c(Cl)ccc13 [AZD5991]; conditions: max 1 µM
Method in brief: as §1

Lapatinib = compound: CS(=O)(=O)CCNCc1ccc(-c2ccc3ncnc(Nc4ccc(OCc5cccc(F)c5)c(Cl)c4)c3c2)o1 [Lapatinib]; conditions: max 10 µM
Method in brief: as §1

AZD6738 = compound: C[C@@H]1COCCN1C2=NC(=NC(=C2)C3(CC3)[S@](=N)(=O)C)C4=C5C=CNC5=NC=C4 [AZD6738]; conditions: max 10 µM
Method in brief: as §1

AZD5153 = compound: COc1nnc2ccc(N3CCC(c4ccc(OCCN5CCN(C)C(=O)[C@H]5C)cc4)CC3)nn12 [AZD5153]; conditions: max 1 µM
Method in brief: as §1

Trametinib = compound: CC(=O)Nc1cccc(-n2c(=O)n(C3CC3)c(=O)c3c(Nc4ccc(I)cc4F)n(C)c(=O)c(C)c32)c1 [Trametinib]; conditions: max 1 µM
Method in brief: as §1

Crizotinib = compound: C[C@@H](Oc1cc(-c2cnn(C3CCNCC3)c2)cnc1N)c1c(Cl)ccc(F)c1Cl [Crizotinib]; conditions: max 10 µM
Method in brief: as §1

Savolitinib = compound: C[C@@H](c1ccc2nccn2c1)n1nnc2ncc(-c3cnn(C)c3)nc21 [Savolitinib]; conditions: max 1 µM
Method in brief: as §1

AZD7648 = compound: Cc1cc2ncnn2cc1Nc1ncc2c(n1)n(C1CCOCC1)c(=O)n2C [AZD7648]; conditions: max 10 µM
Method in brief: as §1

AZD8186 = compound: C[C@@H](Nc1cc(F)cc(F)c1)c1cc(C(=O)N(C)C)cc2c(=O)cc(N3CCOCC3)oc12 [AZD8186]; conditions: max 3 µM
Method in brief: as §1

Prexasertib = compound: COc1cccc(OCCCN)c1-c1cc(Nc2cnc(C#N)cn2)n[nH]1 [Prexasertib]; conditions: max 1 µM
Method in brief: as §1

Alisertib = compound: COc1cc(Nc2ncc3c(n2)-c2ccc(Cl)cc2C(c2c(F)cccc2OC)=NC3)ccc1C(=O)O [Alisertib]; conditions: max 10 µM
Method in brief: as §1

AZD1390 = compound: CC(C)n1c(=O)n(C)c2cnc3cc(F)c(-c4ccc(OCCCN5CCCCC5)nc4)cc3c21 [AZD1390]; conditions: max 0.3 µM
Method in brief: as §1

AZD1775 = compound: C=CCn1c(=O)c2cnc(Nc3ccc(N4CCN(C)CC4)cc3)nc2n1-c1cccc(C(C)(C)O)n1 [AZD1775]; conditions: max 3 µM
Method in brief: as §1

SN-38 = compound: CCc1c2c(nc3ccc(O)cc13)-c1cc3c(c(=O)n1C2)COC(=O)[C@]3(O)CC [SN-38]; conditions: max 0.3 µM
Method in brief: as §1

AZD2811 = compound: CCN(CCO)CCCOc1ccc2c(Nc3cc(CC(=O)Nc4cccc(F)c4)[nH]n3)ncnc2c1 [AZD2811]; conditions: max 1 µM
Method in brief: as §1

Capivasertib = compound: C1CN(CCC1(C(=O)N[C@@H](CCO)C2=CC=C(C=C2)Cl)N)C3=NC=NC4=C3C=CN4 [Capivasertib]
Method in brief: as §1

Selumetinib = compound: Cn1cnc2c(F)c(Nc3ccc(Br)cc3Cl)c(C(=O)NOCCO)cc21 [Selumetinib]; conditions: max 10 µM
Method in brief: as §1

SG3199 = compound: CC1=CN2[C@@H](C1)C=NC3=CC(=C(C=C3C2=O)OC)OCCCCCOC4=C(C=C5C(=C4)N=C[C@@H]6CC(=CN6C5=O)C)OC [SG3199]; conditions: max 0.001 µM
Method in brief: as §1

Cell Line	IC50, cell viability 72 h (AZD4320) [nM]	IC50, cell viability 72 h (Doxorubicin) [nM]	IC50, cell viability 72 h (Gefitinib) [nM]	IC50, cell viability 72 h (Venetoclax) [nM]	IC50, cell viability 72 h (Dasatinib) [nM]	IC50, cell viability 72 h (Palbociclib) [nM]	IC50, cell viability 72 h (Olaparib; max 10 µM) [nM]	IC50, cell viability 72 h (Taselisib) [nM]	IC50, cell viability 72 h (AZD0156) [nM]	IC50, cell viability 72 h (AZD5991) [nM]	IC50, cell viability 72 h (Lapatinib) [nM]	IC50, cell viability 72 h (AZD6738) [nM]	IC50, cell viability 72 h (AZD5153) [nM]	IC50, cell viability 72 h (Trametinib) [nM]	IC50, cell viability 72 h (Crizotinib) [nM]	IC50, cell viability 72 h (Savolitinib) [nM]	IC50, cell viability 72 h (AZD7648) [nM]	IC50, cell viability 72 h (AZD8186) [nM]	IC50, cell viability 72 h (Prexasertib) [nM]	IC50, cell viability 72 h (Alisertib) [nM]	IC50, cell viability 72 h (AZD1390) [nM]	IC50, cell viability 72 h (AZD1775) [nM]	IC50, cell viability 72 h (SN-38) [nM]	IC50, cell viability 72 h (AZD2811) [nM]	IC50, cell viability 72 h (Capivasertib; max 10 µM) [nM]	IC50, cell viability 72 h (Selumetinib) [nM]	IC50, cell viability 72 h (SG3199) [nM]	IC50, cell viability 72 h (Olaparib; max 3 µM) [nM]	IC50, cell viability 72 h (Capivasertib; max 3 µM) [nM]
HuP-T4 (Pancreatic Carcinoma)	> 1000	946	> 10000	> 1000	> 2000	> 10000	> 10000	> 10000	> 3000	> 1000	> 10000	> 10000	> 1000	> 1000	> 10000	> 1000	> 10000	> 3000	175	> 10000	> 300	1000	8.7	> 1000	> 10000	> 10000	> 1	–	–
NCI-H1869 (Non-Small Cell Lung Carcinoma)	–	–	–	–	–	–	–	–	> 3000	–	–	–	–	–	–	–	–	–	–	–	–	> 3000	–	–	–	–	–	> 3000	> 3000
42-MG-BA (Glioblastoma)	> 1000	163	> 10000	> 1000	54.6	> 10000	> 10000	627	> 3000	299	> 10000	8570	401	> 1000	> 10000	> 1000	> 10000	2530	25.3	8550	> 300	1050	7.39	> 1000	2250	> 10000	> 1	–	–
ES4 (Ewing's Sarcoma)	> 1000	431	> 10000	> 1000	> 2000	> 10000	> 10000	3240	> 3000	> 1000	> 10000	2030	246	> 1000	> 10000	> 1000	> 10000	> 3000	24.3	> 10000	> 300	> 3000	8.83	> 1000	> 10000	> 10000	> 1	–	–
RC-K8 (B-Cell Non-Hodgkin's Lymphoma)	856	–	> 10000	> 1000	> 2000	> 10000	–	7690	> 3000	> 1000	> 10000	1630	100	> 1000	> 10000	> 1000	> 10000	> 3000	14.5	3000	> 300	> 3000	13.4	> 1000	> 10000	> 10000	–	> 3000	–
